{
  "source": "ChEMBL document CHEMBL1130782",
  "about": "“Syntheses and evaluation of benzodiazaborine compounds against M. tuberculosis H37Rv in vitro” (1998)",
  "assay_type_in_all_cases": "functional",
  "key": {"[1]": {"tested_on": "Mycobacterium tuberculosis", "assay": "Compound was tested in vitro for growth inhibition activity against Mycobacterium tuberculosis H37Rv in Bactec 6A media."}, "[2]": {"tested_on": "Mycobacterium tuberculosis", "assay": "Compound was tested in vitro for growth inhibition activity against Mycobacterium tuberculosis H37Rv in Bactec 12B media."}, "Escherichia coli": {"tested_on": "Escherichia coli", "assay": "Compound was tested in vitro for growth inhibition activity against Escherichia coli"}},
  "data": [
    {"compound": "NC(=O)c1cnccn1", "note": "[PYRAZINAMIDE]", "values": [
      {"measurement": "MIC", "setting": "[1]", "result": 1600, "unit": "µM"},
      {"measurement": "MIC", "setting": "[2]", "result": "> 1600", "unit": "µM"}
    ]},
    {"compound": "NNC(=O)c1ccncc1", "note": "[ISONIAZID]", "values": [
      {"measurement": "MIC", "setting": "[1]", "result": "< 0.02", "unit": "µM"},
      {"measurement": "MIC", "setting": "[2]", "result": "< 0.16", "unit": "µM"}
    ]},
    {"compound": "NCCOB(c1ccccc1)c1ccccc1", "values": [
      {"measurement": "MIC", "setting": "[1]", "result": 71, "unit": "µM"},
      {"measurement": "MIC", "setting": "[2]", "result": 285, "unit": "µM"}
    ]},
    {"compound": "OB1N=C(c2cnccn2)Nc2ccccc21", "values": [
      {"measurement": "MIC", "setting": "[1]", "result": "> 572", "unit": "µM"},
      {"measurement": "MIC", "setting": "[2]", "result": "> 572", "unit": "µM"}
    ]},
    {"compound": "CCCCN1B(O)c2ccccc2NC1=O", "values": [
      {"measurement": "MIC", "setting": "[1]", "result": "> 587", "unit": "µM"},
      {"measurement": "MIC", "setting": "[2]", "result": "> 587", "unit": "µM"}
    ]},
    {"compound": "Cc1ccc(S(=O)(=O)N2N=Cc3ccccc3B2O)cc1", "values": [
      {"measurement": "MIC", "setting": "[1]", "result": 40, "unit": "µM"},
      {"measurement": "MIC", "setting": "Escherichia coli", "result": 83, "unit": "µM"},
      {"measurement": "MIC", "setting": "[2]", "result": 320, "unit": "µM"}
    ]},
    {"compound": "O=C1Nc2ccccc2B(O)N1c1ccccc1", "values": [
      {"measurement": "MIC", "setting": "[1]", "result": 33.6, "unit": "µM"},
      {"measurement": "MIC", "setting": "[2]", "result": 67.2, "unit": "µM"}
    ]},
    {"compound": "OB1c2ccccc2N=C(S)N1c1cccnc1", "values": [
      {"measurement": "MIC", "setting": "[1]", "result": 31.4, "unit": "µM"},
      {"measurement": "MIC", "setting": "[2]", "result": 63, "unit": "µM"}
    ]}
  ]
}
